Assay results reported in US20240376084A1, “INHIBITORS OF ALPHA-HEMOLYSIN OF STAPHYLOCOCCUS AUREUS” (Helmholtz-Zentrum Fur Infektionsforschung GmbH, priority 2021, published 2024).

What was measured:
[1] = target: S. aureus Alpha hemolysin (Staphylococcus aureus, UniProt P09616); experiment: cell-based; conditions: A549-LDH Assay activity
[2] = target: hemolysin alpha from Staphylococcus aureus (Staphylococcus aureus, UniProt P09616); experiment: cell-based
Chain of hemolysin alpha from Staphylococcus aureus (P09616 27-319 limits assumed): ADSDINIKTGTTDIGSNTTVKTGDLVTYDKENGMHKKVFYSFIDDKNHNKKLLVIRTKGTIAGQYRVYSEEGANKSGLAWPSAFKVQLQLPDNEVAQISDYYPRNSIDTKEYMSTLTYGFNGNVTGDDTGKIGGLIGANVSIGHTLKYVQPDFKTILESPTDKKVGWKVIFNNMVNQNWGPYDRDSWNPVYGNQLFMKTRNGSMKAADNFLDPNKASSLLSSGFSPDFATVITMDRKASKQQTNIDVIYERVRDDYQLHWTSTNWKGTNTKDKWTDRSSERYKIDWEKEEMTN

Chain of S. aureus Alpha hemolysin (P09616 27-319 limits assumed): as above

SMILES: O=c1[nH]c2cc(Cl)c(S(=O)(=O)Nc3ccc(-c4ccsc4)c(Cl)c3)cc2[nH]c1=O [Compound 32, 7-chloro-N-(3-chloro-4-(thiophen-3-yl)phenyl)-2,3-dioxo-1,2,3,4-tetrahydroquinoxaline-6-sulfonamide]
- EC50 [1]: 100 to 1000 nM
- IC50 [2]: < 30 nM

SMILES: Cc1cc2[nH]c(=O)c(=O)[nH]c2cc1S(=O)(=O)Nc1ccc(-c2cccc(P(C)(C)=O)c2)c(Cl)c1 [Compound 312, N-[3-chloro-4-(3-dimethylphosphorylphenyl)phenyl]-7-methyl-2,3-dioxo-1,4-dihydroquinoxaline-6-sulfonamide]
- EC50 [1]: 100 to 1000 nM
- EC50 [2]: 100 to 1000 nM

SMILES: Cc1cc2[nH]c(=O)c(=O)[nH]c2cc1S(=O)(=O)Nc1ccc(-c2ccn3ncnc3c2)c(Cl)c1 [Compound 337, N-[3-chloro-4-([1,2,4]triazolo[1,5-a]pyridin-7-yl)phenyl]-7-methyl-2,3-dioxo-1,4-dihydroquinoxaline-6-sulfonamide]
- EC50 [1]: 30 to 100 nM
- EC50 [2]: 30 to 100 nM

SMILES: Cc1cc2[nH]c(=O)c(=O)[nH]c2cc1S(=O)(=O)Nc1ccc(-c2ccc3c(c2)CCCN3)c(Cl)c1 [Compound 343, N-[3-chloro-4-(1,2,3,4-tetrahydroquinolin-6-yl)phenyl]-7-methyl-2,3-dioxo-1,4-dihydroquinoxaline-6-sulfonamide]
- EC50 [1]: 100 to 1000 nM
- EC50 [2]: < 30 nM

SMILES: Cc1cc2[nH]c(=O)c(=O)[nH]c2cc1S(=O)(=O)Nc1ccc(-c2c(F)cccc2F)c(Cl)c1 [Compound 308, N-[3-chloro-4-(2,6-difluorophenyl)phenyl]-7-methyl-2,3-dioxo-1,4-dihydroquinoxaline-6-sulfonamide]
- EC50 [1]: 30 to 100 nM
- EC50 [2]: 30 to 100 nM

SMILES: Cc1cc2[nH]c(=O)c(=O)[nH]c2cc1S(=O)(=O)Nc1ccc(-c2ccc(Cl)c(Cl)c2)c(Cl)c1 [Compound 257, N-[3-chloro-4-(3,4-dichlorophenyl)phenyl]-7-methyl-2,3-dioxo-1,4-dihydroquinoxaline-6-sulfonamide]
- EC50 [1]: 30 to 100 nM
- EC50 [2]: < 30 nM

SMILES: Cc1cc(NS(=O)(=O)c2cc3[nH]c(=O)c(=O)[nH]c3cc2Cl)cc(C)c1-c1ccccc1 [Compound 106, 7-chloro-N-(2,6-dimethyl-[1,1′-biphenyl]-4-yl)-2,3-dioxo-1,2,3,4-tetrahydroquinoxaline-6-sulfonamide]
- EC50 [1]: 30 to 100 nM
- IC50 [2]: 100 to 1000 nM

SMILES: Cc1cc2[nH]c(=O)c(=O)[nH]c2cc1S(=O)(=O)Nc1ccc(-c2ccc3c(c2)CCNC3=O)c(Cl)c1 [Compound 334, N-[3-chloro-4-(1-oxo-3,4-dihydro-2H-isoquinolin-6-yl)phenyl]-7-methyl-2,3-dioxo-1,4-dihydroquinoxaline-6-sulfonamide]
- EC50 [1]: 1000 to 6000 nM
- EC50 [2]: 100 to 1000 nM

SMILES: O=c1[nH]c2cc(F)c(S(=O)(=O)Nc3ccc(-c4ccc5c(c4)NCC5)c(Cl)c3)cc2[nH]c1=O [Compound 10, N-(3-chloro-4-(indolin-6-yl)phenyl)-7-fluoro-2,3-dioxo-1,2,3,4-tetrahydroquinoxaline-6-sulfonamide]
- EC50 [1]: 100 to 1000 nM
- IC50 [2]: < 30 nM

SMILES: O=c1[nH]c2cc(F)c(S(=O)(=O)Nc3ccc(-c4cccc(Cl)c4)c(Cl)c3)cc2[nH]c1=O [Compound 65, N-(2,3′-dichloro-[1,1′-biphenyl]-4-yl)-7-fluoro-2,3-dioxo-1,2,3,4-tetrahydroquinoxaline-6-sulfonamide]
- EC50 [1]: 1000 to 6000 nM
- IC50 [2]: 30 to 100 nM

SMILES: Cc1cc2[nH]c(=O)c(=O)[nH]c2cc1S(=O)(=O)Nc1ccc(-c2ccccc2CO)c(Cl)c1 [Compound 78, N-(2-chloro-2′-(hydroxymethyl)-[1,1′-biphenyl]-4-yl)-7-methyl-2,3-dioxo-1,2,3,4-tetrahydroquinoxaline-6-sulfonamide]
- EC50 [1]: 100 to 1000 nM
- IC50 [2]: 100 to 1000 nM

SMILES: Cc1cc2[nH]c(=O)c(=O)[nH]c2cc1S(=O)(=O)Nc1ccc(-c2ccc3c(c2)OCCO3)c(Cl)c1 [Compound 259, N-[3-chloro-4-(2,3-dihydro-1,4-benzodioxin-6-yl)phenyl]-7-methyl-2,3-dioxo-1,4-dihydroquinoxaline-6-sulfonamide]
- EC50 [1]: 100 to 1000 nM
- EC50 [2]: < 30 nM

SMILES: Cc1cc2[nH]c(=O)c(=O)[nH]c2cc1S(=O)(=O)Nc1ccc(C2CCCCC2)cc1 [Compound 86, N-(4-cyclohexylphenyl)-7-methyl-2,3-dioxo-1,2,3,4-tetrahydroquinoxaline-6-sulfonamide]
- EC50 [1]: 100 to 1000 nM
- IC50 [2]: 100 to 1000 nM

SMILES: Cc1cc2[nH]c(=O)c(=O)[nH]c2cc1S(=O)(=O)Nc1ccc(Br)c(Cl)c1 [Compound 75, N-(4-bromo-3-chlorophenyl)-7-methyl-2,3-dioxo-1,2,3,4-tetrahydroquinoxaline-6-sulfonamide]
- EC50 [1]: 100 to 1000 nM
- IC50 [2]: 100 to 1000 nM

SMILES: Cc1cc2[nH]c(=O)c(=O)[nH]c2cc1S(=O)(=O)Nc1ccc(-c2ccc3c(c2)CCN3C)c(Cl)c1 [Compound 341, N-[3-chloro-4-(1-methylindolin-5-yl)phenyl]-7-methyl-2,3-dioxo-1,4-dihydroquinoxaline-6-sulfonamide]
- EC50 [1]: 1000 to 6000 nM
- EC50 [2]: 100 to 1000 nM

SMILES: O=c1[nH]c2cc(Cl)c(S(=O)(=O)Nc3ccc(-c4cccc(N5CCCC5)c4)c(Cl)c3)cc2[nH]c1=O [Compound 21, 7-chloro-N-(2-chloro-3′-(pyrrolidin-1-yl)-[1,1′-biphenyl]-4-yl)-2,3-dioxo-1,2,3,4-tetrahydroquinoxaline-6-sulfonamide]
- EC50 [1]: 100 to 1000 nM
- IC50 [2]: < 30 nM

SMILES: Cc1cc2[nH]c(=O)c(=O)[nH]c2cc1S(=O)(=O)Nc1ccc(-c2ccc(F)cc2)c(Cl)c1 [Compound 3, N-(2-chloro-4′-fluoro-[1,1′-biphenyl]-4-yl)-7-methyl-2,3-dioxo-1,2,3,4-tetrahydroquinoxaline-6-sulfonamide]
- EC50 [1]: 30 to 100 nM
- IC50 [2]: < 30 nM

SMILES: Cc1cc(NS(=O)(=O)c2cc3[nH]c(=O)c(=O)[nH]c3cc2C)ccc1C(C)C [Compound 117, N-(4-isopropyl-3-methylphenyl)-7-methyl-2,3-dioxo-1,2,3,4-tetrahydroquinoxaline-6-sulfonamide]
- EC50 [1]: 100 to 1000 nM
- IC50 [2]: 100 to 1000 nM

SMILES: Cc1cc(NS(=O)(=O)c2cc3[nH]c(=O)c(=O)[nH]c3cc2C)ccc1-c1ccccc1 [Compound 17, 7-methyl-N-(2-methyl-[1,1′-biphenyl]-4-yl)-2,3-dioxo-1,2,3,4-tetrahydroquinoxaline-6-sulfonamide]
- EC50 [1]: < 30 nM
- IC50 [2]: < 30 nM

SMILES: CCCc1ccc(NS(=O)(=O)c2cc3[nH]c(=O)c(=O)[nH]c3cc2Cl)cc1 [Compound 55, 7-chloro-2,3-dioxo-N-(4-propylphenyl)-1,2,3,4-tetrahydroquinoxaline-6-sulfonamide]
- EC50 [1]: 30 to 100 nM
- IC50 [2]: 30 to 100 nM

SMILES: CC(C)c1cc2[nH]c(=O)c(=O)[nH]c2cc1S(=O)(=O)Nc1ccc(OC(F)(F)F)cc1 [Compound 31, 7-isopropyl-2,3-dioxo-N-(4-(trifluoromethoxy)phenyl)-1,2,3,4-tetrahydroquinoxaline-6-sulfonamide]
- EC50 [1]: < 30 nM
- IC50 [2]: < 30 nM

SMILES: Cc1nc2ccc(-c3ccc(NS(=O)(=O)c4cc5[nH]c(=O)c(=O)[nH]c5cc4C)cc3Cl)cc2[nH]1 [Compound 361, N-[3-chloro-4-(2-methyl-3H-benzimidazol-5-yl)phenyl]-7-methyl-2,3-dioxo-1,4-dihydroquinoxaline-6-sulfonamide]
- EC50 [1]: < 30 nM
- EC50 [2]: 30 to 100 nM
